# In patent publication US6852673B2, “Herbicidal pyridine compounds” (BASF Aktiengesellschaft, priority 1998, dated 2005):
# Tests used:
# Type in all cases: in vivo
# [1] = tested on: Solanum nigrum (SOLNI); assay: Pre-emergence herbicidal evaluation, black nightshade
# Procedure, shortened: (§1)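 Pre-emergence; seed/potting-soil mix sown on ~1 inch soil; spray aqueous acetone solution, ~0.0125–0.4 kg/ha equivalent; greenhouse, watered; visual rating at 2–4 wk.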
# [2] = tested on: Triticum aestivum (TRZAW); assay: Post-emergence herbicidal evaluation, winter wheat; settings: rated 2 to 4 weeks after treatment
# Procedure, shortened: (§2)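 Emerged seedlings receive a water-diluted acetone formulation at about 0.03 to 0.4 kg per hectare per pot and are grown on in the greenhouse. Scoring after 2–4 weeks uses a 0 (untreated-like growth) to 9 (death) scale.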
# [3] = tested on: Abutilon theophrasti (ABUTH); assay: Post-emergence herbicidal evaluation, velvetleaf; settings: rated 2 to 4 weeks after treatment
# Procedure, shortened: as §2
# [4] = tested on: Matricaria inodora (MATIN); assay: Post-emergence herbicidal evaluation, mayweed; settings: rated 2 to 4 weeks after treatment
# Procedure, shortened: as §2
# [5] = tested on: Setaria viridis (SETVI); assay: Post-emergence herbicidal evaluation, green foxtail; settings: for SETVI rating: rated 2 to 4 weeks after treatment
# Procedure, shortened: as §2
# [6] = tested on: Oryza sativum (ORYSA); assay: Pre-emergence herbicidal evaluation, rice
# Procedure, shortened: as §1
# [7] = tested on: Zea mays (ZEAMX); assay: Post-emergence herbicidal evaluation, maize; settings: rated 2 to 4 weeks after treatment
# Procedure, shortened: as §2
# [8] = tested on: Echinochloa grus galli (ECHCG); assay: Pre-emergence herbicidal evaluation, barnyard grass
# Procedure, shortened: as §1
# [9] = tested on: Ipomoea hederacea (IPOHE); assay: Pre-emergence herbicidal evaluation, morning glory
# Procedure, shortened: as §1
# [10] = tested on: Abutilon theophrasti (ABUTH); assay: Pre-emergence herbicidal evaluation, velvetleaf
# Procedure, shortened: as §1
# [11] = tested on: Alopecurus myosuroides (ALOMY); assay: Pre-emergence herbicidal evaluation, black grass
# Procedure, shortened: as §1
# [12] = tested on: Hordeum vulgare (HORVW); assay: Pre-emergence herbicidal evaluation, winter barley
# Procedure, shortened: as §1
# [13] = tested on: Lamium purpureum (LAMPU); assay: Post-emergence herbicidal evaluation, purple deadnettle; settings: rated 2 to 4 weeks after treatment
# Procedure, shortened: as §2
# [14] = tested on: Stellaria media (STEME); assay: Post-emergence herbicidal evaluation, chickweed; settings: rated 2 to 4 weeks after treatment
# Procedure, shortened: as §2
# [15] = tested on: Galium aparine (GALAP); assay: Post-emergence herbicidal evaluation, cleaver; settings: rated 2 to 4 weeks after treatment
# Procedure, shortened: as §2
# [16] = tested on: Matricaria inodora (MATIN); assay: Pre-emergence herbicidal evaluation, mayweed
# Procedure, shortened: as §1
# [17] = tested on: Setaria viridis (SETVI); assay: Pre-emergence herbicidal evaluation, green foxtail
# Procedure, shortened: as §1
# [18] = tested on: Solanum nigrum (SOLNI); assay: Post-emergence herbicidal evaluation, black nightshade; settings: rated 2 to 4 weeks after treatment
# Procedure, shortened: as §2
# [19] = tested on: Stellaria media (STEME); assay: Pre-emergence herbicidal evaluation, chickweed
# Procedure, shortened: as §1
# [20] = tested on: Oryza sativum (ORYSA); assay: Post-emergence herbicidal evaluation, rice; settings: rated 2 to 4 weeks after treatment
# Procedure, shortened: as §2
# [21] = tested on: Triticum aestivum (TRZAW); assay: Pre-emergence herbicidal evaluation, winter wheat
# Procedure, shortened: as §1
# [22] = tested on: Hordeum vulgare (HORVW); assay: Post-emergence herbicidal evaluation, winter barley; settings: rated 2 to 4 weeks after treatment
# Procedure, shortened: as §2
# [23] = tested on: Ambrosia artemiisifolia (AMBEL); assay: Post-emergence herbicidal evaluation, ragweed; settings: rated 2 to 4 weeks after treatment
# Procedure, shortened: as §2
# [24] = tested on: Glycine max (GLXMA); assay: Pre-emergence herbicidal evaluation, soyabeans
# Procedure, shortened: as §1
# [25] = tested on: Ambrosia artemiisifolia (AMBEL); assay: Pre-emergence herbicidal evaluation, ragweed
# Procedure, shortened: as §1
# [26] = tested on: Lamium purpureum (LAMPU); assay: Pre-emergence herbicidal evaluation, purple deadnettle
# Procedure, shortened: as §1
smiles,measurement,setting,value
Cc1cc(OCC(F)(F)C(F)(F)C(F)(F)C(F)F)nc(Oc2cc(C(F)(F)F)nn2C)c1 [Example 8],SOLNI rating,[1]; dose 0.013 kg/ha,1 (1 - Trace effect)
same,SOLNI rating,[1]; dose 0.025 kg/ha,3 (3 - Moderate effect)
same,SOLNI rating,[1]; dose 0.1 kg/ha,8 (8 - Approaching complete kill)
same,SOLNI rating,[1]; dose 0.4 kg/ha,8 (8 - Approaching complete kill)
same,TRZAW rating,[2]; dose 0.03 kg/ha,2 (2 - Slight effect)
same,TRZAW rating,[2]; dose 0.1 kg/ha,2 (2 - Slight effect)
same,TRZAW rating,[2]; dose 0.4 kg/ha,3 (3 - Moderate effect)
same,ABUTH rating,[3]; dose 0.03 kg/ha,1 (1 - Trace effect)
same,ABUTH rating,[3]; dose 0.1 kg/ha,5 (5 - Definite injury)
same,ABUTH rating,[3]; dose 0.4 kg/ha,7 (7 - Good herbicidal effect)
same,MATIN rating,[4]; dose 0.03 kg/ha,9 (9 - Complete kill)
same,MATIN rating,[4]; dose 0.1 kg/ha,9 (9 - Complete kill)
same,MATIN rating,[4]; dose 0.4 kg/ha,9 (9 - Complete kill)
same,SETVI rating,[5]; dose 0.03 kg/ha,3 (3 - Moderate effect)
same,SETVI rating,[5]; dose 0.1 kg/ha,6 (6 - Herbicidal effect)
same,SETVI rating,[5]; dose 0.4 kg/ha,8 (8 - Approaching complete kill)
same,grass control such as Setaria virides,[5]; in barley at crop selective doses,effective
same,ORYSA rating,[6]; dose 0.013 kg/ha,0 (0 - No effect)
same,ORYSA rating,[6]; dose 0.025 kg/ha,0 (0 - No effect)
same,ORYSA rating,[6]; dose 0.1 kg/ha,1 (1 - Trace effect)
same,ORYSA rating,[6]; dose 0.4 kg/ha,1 (1 - Trace effect)
same,ZEAMX rating,[7]; dose 0.03 kg/ha,1 (1 - Trace effect)
same,ZEAMX rating,[7]; dose 0.1 kg/ha,1 (1 - Trace effect)
same,ZEAMX rating,[7]; dose 0.4 kg/ha,3 (3 - Moderate effect)
same,ECHCG rating,[8]; dose 0.013 kg/ha,1 (1 - Trace effect)
same,ECHCG rating,[8]; dose 0.025 kg/ha,1 (1 - Trace effect)
same,ECHCG rating,[8]; dose 0.1 kg/ha,6 (6 - Herbicidal effect)
same,ECHCG rating,[8]; dose 0.4 kg/ha,8 (8 - Approaching complete kill)
same,IPOHE rating,[9]; dose 0.013 kg/ha,2 (2 - Slight effect)
same,IPOHE rating,[9]; dose 0.025 kg/ha,2 (2 - Slight effect)
same,IPOHE rating,[9]; dose 0.1 kg/ha,9 (9 - Complete kill)
same,IPOHE rating,[9]; dose 0.4 kg/ha,9 (9 - Complete kill)
same,ABUTH rating,[10]; dose 0.013 kg/ha,0 (0 - No effect)
same,ABUTH rating,[10]; dose 0.025 kg/ha,1 (1 - Trace effect)
same,ABUTH rating,[10]; dose 0.1 kg/ha,7 (7 - Good herbicidal effect)
same,ABUTH rating,[10]; dose 0.4 kg/ha,9 (9 - Complete kill)
same,ALOMY rating,[11]; dose 0.013 kg/ha,1 (1 - Trace effect)
same,ALOMY rating,[11]; dose 0.025 kg/ha,1 (1 - Trace effect)
same,ALOMY rating,[11]; dose 0.1 kg/ha,7 (7 - Good herbicidal effect)
same,ALOMY rating,[11]; dose 0.4 kg/ha,8 (8 - Approaching complete kill)
same,HORVW rating,[12]; dose 0.013 kg/ha,0 (0 - No effect)
same,HORVW rating,[12]; dose 0.025 kg/ha,1 (1 - Trace effect)
same,HORVW rating,[12]; dose 0.1 kg/ha,3 (3 - Moderate effect)
same,HORVW rating,[12]; dose 0.4 kg/ha,4 (4 - Injury)
same,LAMPU rating,[13]; dose 0.03 kg/ha,8 (8 - Approaching complete kill)
same,LAMPU rating,[13]; dose 0.1 kg/ha,8 (8 - Approaching complete kill)
same,LAMPU rating,[13]; dose 0.4 kg/ha,9 (9 - Complete kill)
same,STEME rating,[14]; dose 0.03 kg/ha,3 (3 - Moderate effect)
same,STEME rating,[14]; dose 0.1 kg/ha,5 (5 - Definite injury)
same,STEME rating,[14]; dose 0.4 kg/ha,8 (8 - Approaching complete kill)
same,GALAP rating,[15]; dose 0.03 kg/ha,5 (5 - Definite injury)
same,GALAP rating,[15]; dose 0.1 kg/ha,7 (7 - Good herbicidal effect)
same,GALAP rating,[15]; dose 0.4 kg/ha,8 (8 - Approaching complete kill)
same,MATIN rating,[16]; dose 0.013 kg/ha,8 (8 - Approaching complete kill)
same,MATIN rating,[16]; dose 0.025 kg/ha,8 (8 - Approaching complete kill)
same,MATIN rating,[16]; dose 0.1 kg/ha,9 (9 - Complete kill)
same,MATIN rating,[16]; dose 0.4 kg/ha,9 (9 - Complete kill)
same,SETVI rating,[17]; dose 0.013 kg/ha,1 (1 - Trace effect)
same,SETVI rating,[17]; dose 0.025 kg/ha,3 (3 - Moderate effect)
same,SETVI rating,[17]; dose 0.1 kg/ha,9 (9 - Complete kill)
same,SETVI rating,[17]; dose 0.4 kg/ha,9 (9 - Complete kill)
same,SOLNI rating,[18]; dose 0.03 kg/ha,3 (3 - Moderate effect)
same,SOLNI rating,[18]; dose 0.1 kg/ha,5 (5 - Definite injury)
same,SOLNI rating,[18]; dose 0.4 kg/ha,8 (8 - Approaching complete kill)
same,STEME rating,[19]; dose 0.013 kg/ha,1 (1 - Trace effect)
same,STEME rating,[19]; dose 0.025 kg/ha,4 (4 - Injury)
same,STEME rating,[19]; dose 0.1 kg/ha,9 (9 - Complete kill)
same,STEME rating,[19]; dose 0.4 kg/ha,9 (9 - Complete kill)
same,ORYSA rating,[20]; dose 0.03 kg/ha,1 (1 - Trace effect)
same,ORYSA rating,[20]; dose 0.1 kg/ha,2 (2 - Slight effect)
same,ORYSA rating,[20]; dose 0.4 kg/ha,2 (2 - Slight effect)
same,TRZAW rating,[21]; dose 0.013 kg/ha,0 (0 - No effect)
same,TRZAW rating,[21]; dose 0.025 kg/ha,0 (0 - No effect)
same,TRZAW rating,[21]; dose 0.1 kg/ha,1 (1 - Trace effect)
same,TRZAW rating,[21]; dose 0.4 kg/ha,3 (3 - Moderate effect)
same,HORVW rating,[22]; dose 0.03 kg/ha,2 (2 - Slight effect)
same,HORVW rating,[22]; dose 0.1 kg/ha,3 (3 - Moderate effect)
same,HORVW rating,[22]; dose 0.4 kg/ha,3 (3 - Moderate effect)
same,AMBEL rating,[23]; dose 0.03 kg/ha,5 (5 - Definite injury)
same,AMBEL rating,[23]; dose 0.1 kg/ha,8 (8 - Approaching complete kill)
same,AMBEL rating,[23]; dose 0.4 kg/ha,8 (8 - Approaching complete kill)
same,GLXMA rating,[24]; dose 0.013 kg/ha,0 (0 - No effect)
same,GLXMA rating,[24]; dose 0.025 kg/ha,1 (1 - Trace effect)
same,GLXMA rating,[24]; dose 0.1 kg/ha,2 (2 - Slight effect)
same,GLXMA rating,[24]; dose 0.4 kg/ha,4 (4 - Injury)
same,AMBEL rating,[25]; dose 0.013 kg/ha,5 (5 - Definite injury)
same,AMBEL rating,[25]; dose 0.025 kg/ha,7 (7 - Good herbicidal effect)
same,AMBEL rating,[25]; dose 0.1 kg/ha,8 (8 - Approaching complete kill)
same,AMBEL rating,[25]; dose 0.4 kg/ha,8 (8 - Approaching complete kill)
same,LAMPU rating,[26]; dose 0.013 kg/ha,8 (8 - Approaching complete kill)
same,LAMPU rating,[26]; dose 0.025 kg/ha,8 (8 - Approaching complete kill)
same,LAMPU rating,[26]; dose 0.1 kg/ha,9 (9 - Complete kill)
same,LAMPU rating,[26]; dose 0.4 kg/ha,9 (9 - Complete kill)
